Data as given in US8389523B2, “Substituted quinoxaline and an agrochemical composition thereof” (Kumiai Chemical Industry Co., Ltd., priority 2007, dated 2013).

Key:
Type in all cases: in vivo
Parameters in all cases: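 grade 0 to 5 of growth suppression where 5 is 90% or more and 0 below 10%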
[1] = tested on: Echinochloa oryzicola Vasing; experiment: Herbicidal effects in paddy field soil treatment (Test Example 1); details: paddy field soil treatment; 1000 g of the active ingredient per hectare; wettable powder added dropwise on water surface; 21st day after treatment
Experimental: (§1) Test for Herbicidal Effects in Paddy Field Soil Treatment
(§2) A 100-cm^2 plastic pot was filled with paddy field soil. After puddling and leveling, seeds of Echinochloa oryzicola Vasing, Monochoria vaginalis (Burm. f.) Presl var. plantaginea (Roxb.) Solms-Laub., and Scirpus juncoides Roxb. var. ohwianus. T. Koyama were sowed, and the soil was waterlogged to a water depth of 3 cm. On the next day, a wettable powder formulation prepared according to Preparation Example 1 was diluted with water, and was added dropwise on the water surface. The amount of application was an amount equivalent to 1000 g of the active ingredient per hectare. Thereafter, the plants were grown in a greenhouse, and on the 21st day after the treatment, the herbicidal effects were investigated according to the criteria described in Table 138.

[2] = tested on: Scirpus juncoides Roxb. var. ohwianus. T. Koyama; experiment: as above; details: paddy field soil treatment; 1000 g of the active ingredient per hectare; wettable powder added dropwise on water surface; 21st day after treatment
Experimental: as §1, §2

[3] = tested on: Monochoria vaginalis (Burm. f.) Presl var. plantaginea (Roxb.) Solms-Laub.; experiment: as above; details: paddy field soil treatment; 1000 g of the active ingredient per hectare; wettable powder added dropwise on water surface; 21st day after treatment
Experimental: as §1, §2

Amaranthus viridis L. = experiment: Herbicidal effects in upland field soil treatment (Test Example 2); details: 1000 g active ingredient per hectare, 21st day after treatment, criteria of Table 138
Experimental: (§3) Test Example 2 Test on Herbicidal Effects in Upland Field Soil Treatment A 80-cm^2 plastic pot was filled with upland field soil. Seeds of Abutilon theophrasti medicus and Amaranthus viridis L. were sowed, and soil was covered. A wettable powder formulation prepared according to Preparation Example 1 was diluted with water, and was uniformly sprayed on the soil surface with a small sprayer, in an amount equivalent to 1000 liters per hectare, such that 1000 g of the active ingredient per hectare was applied. Thereafter, the plants were grown in a greenhouse, and on the 21st day after the treatment, the herbicidal effects were investigated according to the criteria described in the Table 138 shown above.

[4] = tested on: Abutilon theophrasti medicus; experiment: as above; details: 1000 g active ingredient per hectare, 21st day after treatment, criteria of Table 138
Experimental: as §3

SMILES	Herbicidal effects index, Echinochloa oryzicola Vasing [1]	Herbicidal effects index, Scirpus juncoides Roxb. var. ohwianus. T. Koyama [2]	Herbicidal effects index, Monochoria vaginalis (Burm. f.) Presl var. plantaginea (Roxb.) Solms-Laub. [3]	herbicidal effect (index) on Amaranthus viridis L. (Amaranthus viridis L.)	herbicidal effect (index) on Abutilon theophrasti medicus [4]
COc1ccc(-n2c(=O)c(C(=O)C3=C(O)CCCC3=O)nc3c(Cl)cccc32)cc1 [II-194, 5-chloro-3-(2-hydroxy-6-oxo-1-cyclohexenecarbonyl)-1-(4-methoxyphenyl)-quinoxalin-2(1H)-one]	4	5	5	5	4
Cc1ccc(-n2c(=O)c(C(=O)C3=C(O)CCCC3=O)nc3ccc(C)cc32)nc1 [I-368]	4	5	5	5	5
O=C1CCCC(O)=C1C(=O)c1nc2c(F)cccc2n(-c2ccc3c(c2)OCCO3)c1=O [II-236]	4	5	5	5	4
C=CCOc1ccc(-n2c(=O)c(C(=O)C3=C(O)CCCC3=O)nc3ccccc32)cc1 [II-81]	5	5	5	5	5
COc1ccc(-n2c(=O)c(C(=O)C3=C(O)CCCC3=O)nc3c(F)cccc32)cn1 [I-279]	4	5	5	5	5
O=C1CCCC(O)=C1C(=O)c1nc2ccccc2n(-c2ccc3ccccc3c2)c1=O [I-264]	4	5	5	5	4
COc1ccc2nc(C(=O)C3=C(O)CCCC3=O)c(=O)n(C)c2c1 [I-238]	5	5	4	4	5
COc1ccc(-n2c(=O)c(C(=O)C3=C(O)CCCC3=O)nc3c(F)cccc32)cc1 [II-186, 5-fluoro-3-(2-hydroxy-6-oxo-1-cyclohexenecarbonyl)-1-(4-methoxyphenyl)-quinoxalin-2(1H)-one]	4	5	5	5	5
CC1CC(C)C(O)=C(C(=O)c2nc3ccccc3n(-c3ccc4c(c3)OCCO4)c2=O)C1=O (centres unmarked) [II-229]	5	5	5	5	4
O=C1CCCC(O)=C1C(=O)c1nc2ccccc2n(-c2ccc3c(c2)OCCO3)c1=O [I-209, 1-(2,3-dihydrobenzo[b]1,4-dioxin-6-yl)-3-(2-hydroxy-6-oxo-1-cyclohexenecarbonyl)-quinoxalin-2(1H)-one]	4	5	5	5	4
COc1ccc(-n2c(=O)c(C(=O)C3=C(O)CCCC3=O)nc3ccccc32)c(F)c1 [II-174]	5	5	5	5	4
Cn1c(=O)c(C(=O)C2=C(O)CCCC2=O)nc2c(Cl)cccc21 [I-223]	4	5	5	5	5
Cc1ccc(-n2c(=O)c(C(=O)C3=C(O)CCCC3=O)nc3ccccc32)nc1 [I-178]	4	5	5	5	5
CC(C)(C)c1cc(-n2c(=O)c(C(=O)C3=C(O)CCCC3=O)nc3ccccc32)no1 [I-265]	4	5	5	5	4
O=C1CCCC(O)=C1C(=O)c1nc2ccccc2n(COc2ccccc2)c1=O [I-57]	4	5	5	5	4
COc1ccc2nc(C(=O)C3=C(O)CCCC3=O)c(=O)n(-c3ccc(C)cc3)c2c1 [II-306]	5	5	5	5	5
